Experimental data taken from patent US9604931B2, “Nuclear receptor binding agents” (GTx, Inc., priority 2007, dated 2017).

Assays:
[1] = system: ARPE-19 cells; test: Fluorescent detection of intracellular ROS; type: cell-based, Human; conditions: 150 μM tBH
From the text: Cells were allowed to adhere overnight. […] Removed and washed cells once with HBSS. […] Each drug concentration was done in triplicates.

[2] = target: ER-β (Rattus norvegicus (Rat), UniProt Q62986); test: ER-β transactivation (ERE-LUC) in COS or 293 cells; type: cell-based
Chain of ER-β (Q62986 whole entry): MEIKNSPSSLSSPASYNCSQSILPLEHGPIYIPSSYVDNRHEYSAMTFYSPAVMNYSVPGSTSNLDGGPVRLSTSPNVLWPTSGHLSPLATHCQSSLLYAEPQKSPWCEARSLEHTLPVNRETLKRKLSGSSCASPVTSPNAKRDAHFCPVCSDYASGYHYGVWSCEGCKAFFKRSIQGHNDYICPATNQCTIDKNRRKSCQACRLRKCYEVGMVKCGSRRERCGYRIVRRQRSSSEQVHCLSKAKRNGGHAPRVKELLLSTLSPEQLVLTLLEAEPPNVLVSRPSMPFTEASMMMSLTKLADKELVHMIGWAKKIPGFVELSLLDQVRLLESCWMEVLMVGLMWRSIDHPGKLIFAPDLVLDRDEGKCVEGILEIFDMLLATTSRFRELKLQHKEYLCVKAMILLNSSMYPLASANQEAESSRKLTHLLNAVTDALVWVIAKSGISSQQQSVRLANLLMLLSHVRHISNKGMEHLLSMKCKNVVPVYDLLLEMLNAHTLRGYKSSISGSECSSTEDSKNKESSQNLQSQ

[3] = system: Rat Aortic Smooth Muscle Cells (RASMC); test: RASMC cell proliferation assay (WST-1); type: cell-based; conditions: Rattus norvegicus, read-out: EC50 for inhibition of RASMC proliferation
Protocol: EC50 values were calculated using WinNonLin 5.0.1 using the inhibitory effect sigmoid Emax model.

[4] = system: Ang II induced hypertension; test: Angiotensin II model, blood pressure; type: in vivo, ovariectomized C57/BJ6 and ERβKO mice; parameters: Systolic pressure / Diastolic pressure: unit: mmHg; conditions: for Diastolic pressure / Systolic pressure: Ang II
Protocol: (§1) Thirty, ten week old female ovariectomized C57/BJ6 mice, were obtained from Harlan/Sprague Dawley and were housed in 12 hour on/off lighting and fed rodent chow devoid of soy or most plant products. Ovariectomized ERβ gene-deleted (ERβKO or ERβ-KO) mice were obtained from Ken Korach, NIEHS. The ERβ mice were originally created by Drs. Smithies, Gustafsson, and colleagues. All mice were identically housed and fed the same chow.
(§2) This pellet is well documented to produce physiological levels of E2 in the serum of mice.
Blood pressure was measured 4 times during the 21-day period, using the CODA non-invasive blood pressure measuring system (Kent Scientific, Torrington, Conn.). Measurements were done by volume pressure recordings of the tail.

[5] = system: Ang II induced cardiac fibrosis; test: Angiotensin II model, cardiac fibrosis; type: in vivo, ovariectomized C57/BJ6 and ERβKO mice
Protocol: as §1, with “ERβKO” for “ERβ gene-deleted (ERβKO or ERβ-KO)”
as §2
Left ventricular tissues were fixed in 4% paraformaldehyde solution. Paraffin-embedded tissue sections (5 um) were stained with Masson's trichrome for the presence of interstitial collagen fiber accumulation indicative of cardiac fibrosis. The ratio of interstitial fibrosis to the total left ventricular area was calculated from 10 randomly selected microscopic fields from each of five sections per heart using NIH imageJ analysis software (n=5 mice per condition). Further quantification of collagen deposition was made by ventricular content of hydroxyproline, a breakdown product of collagen, determined by a modified method of Bergman and Loxley (19). The ventricular tissues were homogenized and hydrolyzed in 6 N HCl at 110° C. for 24 h in a sealed reaction vial. The sample was dried and the residue re-suspended in sterile water. 0.5 ml of chloramine T was added for 5 min, then Ehrlich's reagent (3 ml) was added and the mixture left for 18 h at room temperature. The intensity of the red coloration that developed was measured by a spectrophotometer at 558 nm.

[6] = system: Ang II induced left ventricular hypertrophy; test: Angiotensin II model, cardiac hypertrophy; type: in vivo, ovariectomized C57/BJ6 and ERβKO mice; conditions: 21 days
Protocol: as §1, with “ERβKO” for “ERβ gene-deleted (ERβKO or ERβ-KO)”
as §2
At inception and after 21 days, the mice were weighed. Blood pressure was measured 4 times during the 21-day period, using the CODA non-invasive blood pressure measuring system. At 21 days the hearts were stopped in diastole by CdCl2 administration. The hearts were removed and weighed and the ratio of heart per total body weight was determined. Next, the hearts were dissected and the left ventricles were weighed and the ratio of left ventricle per total body weight was determined. […] For comparison ERβ gene-deleted mice were subjected to the same conditions of Ang II±E2 or the 12u compound. For histology, the hearts were and sectioned, and stained with hematoxylin and eosin, or Masson stain (for collagen)

[7] = system: SHP promoter; test: SHP promoter-luciferase assay in HEK-293 cells; type: cell-based
Protocol: FIG. 12 depicts the effect of ER-β ligand on PPAR-γ function through ligand binding domain (LBD). (A). HEK-293 cells were transfected with 0.25 μg PPRE-LUC, 5 ng CMV-renilla LUC and the indicated receptors (PPAR-γ and ER-β for the left panel and PPAR-α and ER-β for the right panel). The cells were treated 24 hrs after transfection with the indicated ligands and harvested 48 hrs after transfection and firefly luciferase activity was measured and normalized to renilla luciferase. (B). H475 in ER-β LBD is important for its function. H475 in ER-β LBD was mutated to alanine (A) using a site directed mutagenesis kit. Transactivation assay was performed as described in panel A in HEK-293 cells with a titration of ER-β ligands in wild type (WT) or ER-β H475A. (C). […] HEK-293 cells were transfected with 0.25 μg PPRE-LUC, 5 ng CMV-renilla LUC and 50 ng of the indicated receptors (PPAR-γ or PPAR-γ and wild type ER-β or PPAR-γ and ER-β H475A). The cells were treated 24 hrs after transfection with the indicated ligands and harvested 48 hrs after transfection and firefly luciferase activity was measured and normalized to renilla luciferase. (D). […] HepG2 cells were transfected with 0.25 μg PPRE-LUC, 5 ng CMV-renilla LUC, 0.5 μg PGC-1 or vector backbone and 100 ng of the indicated receptors (PPAR-γ or PPAR-γ and wild type ER-β or PPAR-γ and ER-β H475A for top panels and PPAR-α or PPAR-α and ER-β for bottom panel). The cells were treated 24 hrs after transfection with the indicated ligands and harvested 48 hrs after transfection and firefly luciferase activity was measured and normalized to renilla luciferase. (E). SHP-1 is an ER-β specific target gene. HEK-293 cells were transfected with 0.25 μg SHP-LUC, 5 ng CMV-renilla LUC and 50 ng of the indicated receptors (FXR and ER-α for the left panel and FXR and ER-β for the right panel). The cells were treated 24 hrs after transfection with the indicated ligands and harvested 48 hrs after transfection and firefly luciferase activity was measured and normalized to renilla luciferase. PPAR—peroxisome proliferator and activated receptor; ER—estrogen receptor; H—histidine; A—alanine; RLU—relative luciferase units; Tro—troglitazone; PGC-1—PPAR-γ coactivator; SHP—small heterodimer partner; FXR—farsenoid X receptor.
Human estrogen receptors (ER-α and ER-β) were cloned from prostate cDNA into a pCR3.1 plasmid vector backbone. PGC-1 was cloned into mammalian two hybrid vector pACT. ER-β H475 was mutated to alanine using site-directed mutagenesis. Sequencing was performed to determine the absence of any non specific mutations. SHP promoter (−572 to +10) (26) was cloned into pGL3 basic LUC reporter vector and human FXR was cloned into pCR3.1. […]

[8] = target: ER-α (Rattus norvegicus (Rat), UniProt P06211); type: cell-based
Protocol: COS or 293 cells were plated in DME without phenol red+10% cs FBS at 90,000 cells per well in 24 well plates, and were transfected with 0.25 μg of the vector “ERE-LUC”, where a firefly luciferase gene was driven by two estrogen responsive elements and 0.02 μg of the control CMV-LUC, Renilla where a luciferase gene was driven by a CMV promoter. […] All the receptors were cloned from rat tissue into the PCR3.1 vector backbone. Twenty four hours post transfection, cells were treated with compounds of this invention, estrogen, DHT, and other NRBAs or combinations thereof. Cells were harvested 48 hrs after transfection, and assayed for firefly and Renilla luciferase activity.

[9] = system: LPS induced THP-1 macrophage cell adhesion to bEND-3 endothelial cells; test: Macrophage adhesion assay; type: cell-based
Protocol: To determine the anti-inflammatory effects of ER-β NRBAs in vitro, a macrophage adhesion assay was performed. Macrophages adhere to endothelial cells due to elevated levels of pro-inflammatory cytokines. This principle was used in this assay to determine the effect of one of the ER-NRBAs on bacterial lipopolysaccharide (LPS) induced THP-1 macrophage cell adhesion to bEND-3 endothelial cells.

[10] = target: ERα ligand binding domain (Homo sapiens, UniProt P03372); test: Competitive [3H]-estradiol binding assay, ER-α (Example 21); conditions: 100 nM of compound; read-out: Percent Inhibition of [3H]-Estradiol Binding to ER-α
Chain of ERα ligand binding domain (P03372 whole entry, looked up, the tested form may be a part): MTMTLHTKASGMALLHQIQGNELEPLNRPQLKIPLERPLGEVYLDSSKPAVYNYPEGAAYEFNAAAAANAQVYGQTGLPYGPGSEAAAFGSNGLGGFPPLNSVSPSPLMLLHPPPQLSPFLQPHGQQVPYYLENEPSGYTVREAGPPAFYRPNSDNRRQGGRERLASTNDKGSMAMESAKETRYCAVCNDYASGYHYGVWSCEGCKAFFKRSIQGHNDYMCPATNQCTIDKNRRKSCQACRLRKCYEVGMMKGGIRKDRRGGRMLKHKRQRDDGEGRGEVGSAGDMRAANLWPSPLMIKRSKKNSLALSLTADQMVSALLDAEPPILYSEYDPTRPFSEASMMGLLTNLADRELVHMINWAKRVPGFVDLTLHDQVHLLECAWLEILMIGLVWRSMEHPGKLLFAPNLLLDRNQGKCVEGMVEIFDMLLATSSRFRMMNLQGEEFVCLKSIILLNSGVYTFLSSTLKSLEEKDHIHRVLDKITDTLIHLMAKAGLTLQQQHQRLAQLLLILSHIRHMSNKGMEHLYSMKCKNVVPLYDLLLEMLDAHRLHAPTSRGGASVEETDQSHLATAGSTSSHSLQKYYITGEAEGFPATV
Protocol: (§3) ER binding affinity was determined via one of the following methods:
(§4) Briefly, the incubation mixture was filtered through a high affinity protein binding filter, and washed several times to remove any unbound radioactivity. The filter plate was air dried and sealed on the bottom.
(§5) Nonspecific binding was subtracted from total binding to yield specific binding.

[11] = system: rat aorta rings; test: Rat aortic ring relaxation; conditions: 10^-6 PE constriction
From the text: Experimental protocol. Equipment used in these studies included a 4-tissue bath system with reservoirs and circulators (RadnotiGlass Technology, Monrovia, Calif.), DSI/Ponemah tissue force analyzer 7700 (Valley View, Ohio), and iWorx/CB Sciencesforce transducers FT-302. The 250 g rats were anesthetized with isoflurane to produce deep anesthesia. The chest of the rat was opened, and about 3 cm length of aorta was removed and placed in a Petri dish containing room temperature Krebs salt solution (KSS, in mM: 120 NaCl, 5 KCl, 1.2 MgSO4.7H20, 2.5 CaCl2.2H2O, 1 KH2PO4, 25 NaHCO3, and 11 glucose). Fat and connective tissue were removed from the aorta taking care not to stretch the vessel. The aorta was then divided into 3-mm-wide rings. Triangular wire holders were inserted through the lumen of the vessel and connected to the force transducer and tissue holder rod in the vessel bath.
Analog-to-digital conversions of force waveforms were accomplished with a DSI/Ponemah tissue force analyzer 7700. The converted data were automatically analyzed with Ponemah Physiology-Smooth Muscle software. All data are summarized as means±standard error. Differences between means were assessed by a conventional ANOVA. This was followed by Student's test. P<0.05 was considered to be statistically significant.
The tension on the rings was adjusted to 1.0 g passive force using the tension adjustment dial for each transducer and allowed to equilibrate for 60 min in the bath with a 95% O2-5% CO2 gas mixture. The rings were washed with fresh buffer every 20 min. Passive force was readjusted to 1.0 g as needed during this period. When rings were stable at 1.0 g of passive force, the baseline was calculated.
Phenylephrine (PE) at a final concentration of […] was added to the bath to contract the ring, and force was allowed to stabilize for 10 min. Then acetylcholine (ACH) at a final concentration of 10^−5 M was added to the precontracted rings to test for endothelial integrity […]. After the initial test for vessel viability and endothelial integrity, the rings were washed three times for 10 min with buffer, allowing it to equilibrate to active force stabilized at 1 g.
Cumulative concentration-response curves to NRBAs were created by increasing the NRBAs concentration in the tissue bath by successive addition of appropriate dilutions of stock solutions to achieve final bath concentrations of 300 nM to 0.15 mM NRBAs.
Table 10 summarizes EC50 values and maximal % decrease of the 10^−6 PE constriction of the aortic ring for individual NRBAs tested

[12] = target: ERβ ligand binding domain (Homo sapiens, UniProt Q92731); test: Competitive [3H]-estradiol binding assay, ER-β (Example 21)
Chain of ERβ ligand binding domain (Q92731 whole entry, looked up, the tested form may be a part): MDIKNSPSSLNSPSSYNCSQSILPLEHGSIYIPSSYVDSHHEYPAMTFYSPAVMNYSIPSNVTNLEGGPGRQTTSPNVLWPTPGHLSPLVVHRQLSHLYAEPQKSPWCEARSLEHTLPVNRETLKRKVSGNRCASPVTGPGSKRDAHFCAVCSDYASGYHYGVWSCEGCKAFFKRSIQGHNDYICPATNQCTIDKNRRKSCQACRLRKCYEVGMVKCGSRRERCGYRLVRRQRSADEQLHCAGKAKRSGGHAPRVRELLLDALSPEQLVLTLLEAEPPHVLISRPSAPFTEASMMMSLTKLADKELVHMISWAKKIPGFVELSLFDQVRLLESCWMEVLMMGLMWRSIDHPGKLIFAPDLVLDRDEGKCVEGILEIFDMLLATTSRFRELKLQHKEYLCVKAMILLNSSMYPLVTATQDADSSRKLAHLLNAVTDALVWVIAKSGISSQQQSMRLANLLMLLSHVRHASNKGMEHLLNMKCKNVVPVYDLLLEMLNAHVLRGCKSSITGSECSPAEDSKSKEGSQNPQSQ
Protocol: as §3, §4, §5

C[C@]12CC[C@@H]3c4ccc(O)cc4CC[C@H]3[C@@H]1CC[C@@H]2O [Estradiol, reference compound]
Reduction in ROS formation ([1]; 100 nM): approximately 30% | ER-β RLU/RenRLU ([2]; dose 1 nM): 0.48 RLU/RenRLU | EC50 [3]: 36.4 µM | Ang II induced hypertension, diastolic pressure ([4]; ERβ-KO mice, 21 days): unchanged | Ang II induced hypertension, systolic pressure ([4]; ERβ-KO mice, 21 days): mildly reduced | Diastolic pressure ([4]; ERβKO, 7 days): 95 | Systolic pressure ([4]; ERβKO, 7 days): 149 | Diastolic pressure ([4]; ERβKO, 14 days): 98 | Systolic pressure ([4]; ERβKO, 14 days): 143 | Diastolic pressure ([4]; ERβKO, 21 days): 96 | Systolic pressure ([4]; ERβKO, 21 days): 145 | Diastolic pressure ([4]; ERβKO, time 0): 86 | Systolic pressure ([4]; ERβKO, time 0): 126 | Diastolic pressure ([4]; WT, 7 days): 82 | Systolic pressure ([4]; WT, 7 days): 121 | Diastolic pressure ([4]; WT, 14 days): 86 | Systolic pressure ([4]; WT, 14 days): 124 | Diastolic pressure ([4]; WT, 21 days): 88 | Systolic pressure ([4]; WT, 21 days): 131 | Diastolic pressure ([4]; WT, time 0): 85 | Systolic pressure ([4]; WT, time 0): 123 | Ang II induced hypertension ([4]; wildtype mice, 21 days): largely prevented | Ventricular hydroxyproline content ([5]; WT mice, not ERβKO): significantly inhibited the hydroxyproline content | Ang II induced cardiac fibrosis (interstitial collagen) ([5]; only in WT mice): significantly inhibited fibrosis | Ang II induced increase in heart size and total heart weight [6]: prevented the increased size | Ang II induced left ventricular hypertrophy (LVW/BW) ([6]; wildtype but not ERβKO mice): largely prevented

CCCc1c(-c2ccc(O)cc2)nn(-c2ccc(O)cc2)c1-c1ccc(O)cc1 [PPT, 1,3,5-tris(4-hydroxyphenyl)-4-propyl-1H-pyrazole, reference compound]
SHP promoter activity ([7]; transfected with FXR and ER-α): increased SHP activity

O=c1c2c(O)cc(O)cc2c(Cl)cn1-c1ccc(O)cc1 [12y, 4-chloro-6,8-dihydroxy-2-(4-hydroxyphenyl)isoquinolin-1(2H)-one]
Inhibition of ROS formation [1]: more than 50% | Prevention of ROS formation / oxidative stress [1]: protected ARPE-19 cells from oxidative damage | ER-β agonist activity [2]: ER-β agonist activity | Classification as ER-α agonist [8]: ER-α agonists | Adhesion of 3H labeled THP-1 cells to bEND-3 cells [9]: significantly inhibited | inhibition at 0.1 µM [10]: 51.9% | Mean of Maximal % Decrease of the PE constriction of the aortic ring [11]: 80.63% | EC50 ([11]; Rattus norvegicus): 13.2 µM | Ki Ratio (ER-α/ER-β) [12]: 11 | inhibition at 0.1 µM ([12]; read-out: Percent Inhibition of [3H]-Estradiol Binding to ER-β): 97.5%

CC(C)c1onc(-c2c(Cl)cccc2Cl)c1COc1ccc(/C=C/c2cccc(C(=O)O)c2)c(Cl)c1 [GW4064, reference compound]
SHP promoter activity ([7]; transfected with FXR and ER-β): increased its activity significantly
